Assay [1] concerns S. cerevisiae MY2256. The assay can be described thus: MIC assay. Conditions: Saccharomyces cerevisiae, MY2256, 42 h. The class given is cell-based. Here is the method: (§1) The sensitivities of pcr1(fks2-1) fks1-1 and pcr1(fks2-1) FKS1 strains to L-733,560, L-636,947 (Aculeacin), and L-687,781 (Dihydropapulocandin) were determined in MIC assays. Briefly, strains were grown to stationary phase in 5.0 ml of liquid YPAD medium. MY2256 precultures were grown in liquid YPAD10Ca. MIC assays were performed in flat well microtiter plates in triplicate. Each well of the microtiter plate was filled with 100 mcL of YPAD medium. To the first well, 100 mcL of a 4× solution of drug in YPAD medium was added. To serve as a control, a stock solution of […] of YPAD was made. 100 mcL of this solution was added to the initial well for strains grown in the presence of solvent but the absence of drug. Two-fold serial dilutions of the drug were performed down the plate.
(§2) Cultures were diluted to 5×10^5 cells/ml in YPAD (1 OD660 =3.3×10^7 cells/ml). 100 mcL of diluted culture was added to each well, resuspended, and incubated at 28° C. After 42 hours, cultures were resuspended and cells densities measured in an SLT Laboratories 340 ATTC microtiter plate reader.

The test system of assay [2] is S. cerevisiae YFK0931-07B. Put plainly: MIC assay. The assay is classed as cell-based. The settings on record: Saccharomyces cerevisiae, YFK093107B, 42 h. Here is the method:
as §1, §2

Assay [3] deals with S. cerevisiae FKS1 pcr1 spores. Put plainly: drug phenotype of segregants from tetrad analysis. The class given is cell-based, Saccharomyces cerevisiae. The text has this: YFK0996-11B (MATa fks1-1 pcr1) was also crossed to YFK0005 (MATalpha FKS1 PCR1). In this cross, the pcr1 and fks1-1 mutations segregate independently. In the 16 four-spore and 20 three-spore tetrads, the segregation pattern of 1 Parental Ditype: 1 Non Parental Ditype : 4 Tetratype tetrads is indicative of two unlinked genes. […] Strains MY2257 (also known as YFK1088-23B, MATa FKS1 +pcr1), MY2258 (also known as YFK1088-16D, MATalpha FKS1+pcr1), and YFK1088-02D (MATa FKS1 +pcr1) were segregants from this cross. As shown in the table below, these segregants contain the pcr1 mutation in a wild-type FKS1 background and lack plasmid pDL1 present in the original mutant.

In assay [4] the test system is S. cerevisiae R560-1 / R560-1C (fks1-2). The assay can be described thus: liquid MIC assay of resistant clone. The assay is classed as cell-based, Saccharomyces cerevisiae. As for the experimental part: Strain W303-1A was transformed by the spheroplast method (MYG) with yeast genomic libraries obtained from D. Botstein (1982. Cell, 28:145-154). Transformants selected on uracil dropout medium were pooled and stored at -80° C. in 20% glycerol. After determining the titer (colony forming units(CFU)/ml), aliquots of the stocks were spread at .congruent.5×10^3 CFU per plate onto uracil dropout medium containing the semisynthetic echinocandin L-733,560 at 0.5 mcg/ml or 1.25 mcg/ml. This concentration of L-733,560 is sufficient to select for resistant clones. Twenty-seven drug resistant colonies were isolated. […] Briefly, L-733,560 was serially diluted across the wells of a sterile microtiter plate such that the concentration in each row ranged from 16 to 0.03 mcg/ml in 2-fold increments after an equal volume of a cell suspension in liquid uracil dropout medium was added. After 24 h at 30° C., plates were read in a spectrophotometer at a wavelength of 600 nm, and the percent of control growth in each well (relative to a no-drug control well) was calculated. […]
Because this strain was isolated as a transfornant from the genomic library, it was expected that resistance would be due to the gene residing on the plasmid contained in R560-1. […] R560-1C was mated to the wild type strain W303-1B, sporulated, dissected, and the sensitivity to L-733,560 quantitated by liquid MIC assay. […]

Broadly, the MIC is the smallest concentration in the dilution series that meets the test's criterion for growth inhibition.

Molecules are shown by their SMILES. Values after ≈ are worked out from the molar mass of the structure shown. Read-outs that look alike come from different tables or passages of the source. *1 amine or outer side, *2 acyl side, *3 side chain or, on linkers, in order; H or OH if unused. Where a SMILES comes first, the peptide text is derived from it. Bridges are numbered along the chain shown (N, C = ends). [ ]: non-standard residue; d: D form. The star is where a group is joined. Orn(4R-OH,5R-OH) = O=C([C@H](C[C@@H](O)[C@@H](O)N[*:3])N[*:1])[*:2]; hTyr(3S-OH,4S-OH) = N[C@H](C(=O)O)[C@H](O)[C@@H](O)c1ccc(O)cc1; Pro(3S-OH,4S-Me) = C[C@H]1CN[C@H](C(=O)O)[C@H]1O; Benzoyl(4-octyloxy) = CCCCCCCCOc1ccc(C(=O)*)cc1; Hyp = O=C(O)[C@@H]1C[C@@H](O)CN1

Turning to `CCC1C=C(C)CC(C)CC(OC)C2OC(O)(C(=O)C(=O)N3CCCCC3C(=O)OC(C(C)=CC3CCC(O)C(OC)C3)C(C)C(O)CC1=O)C(C)CC2OC` (stereo not drawn) [FK520], the MIC in assay [1] and in assay [2] was 0.06 µg/mL (≈ 0.0758 µM) throughout. Also, the “drug resistance phenotype of spores” value in assay [3] is given as “resistant”.
As to `CO[C@H]1C[C@@H]2CC[C@@H](C)[C@@](O)(O2)C(=O)C(=O)N2CCCC[C@H]2C(=O)O[C@H]([C@H](C)C[C@@H]2CC[C@@H](O)[C@H](OC)C2)CC(=O)[C@H](C)/C=C(\C)[C@@H](O)[C@@H](OC)C(=O)[C@H](C)C[C@H](C)/C=C/C=C/C=C/1C` [Rapamycin, rapamycin], the MIC in assay [1] turned out to be 0.007 µg/mL (≈ 0.00766 µM); in assay [2] (YFK0931-07B, read-out: MIC), 0.007 µg/mL (≈ 0.00766 µM).
As for `CCCCCCCCOc1ccc(C(=O)N[C@H]2C[C@@H](O)[C@@H](O)NC(=O)[C@@H]3[C@@H](O)[C@@H](C)CN3C(=O)[C@H]([C@@H](C)O)NC(=O)[C@H]([C@H](O)[C@@H](O)c3ccc(O)cc3)NC(=O)[C@@H]3C[C@@H](O)CN3C(=O)[C@H]([C@@H](C)O)NC2=O)cc1` [L-646,991, cilofungin] ({Benzoyl(4-octyloxy)}-[Orn(4R-OH,5R-OH)]T[Hyp][hTyr(3S-OH,4S-OH)]T[Pro(3S-OH,4S-Me)]; lactam 1-C), the “resistance phenotype in liquid MIC assay” value in assay [4] was “resistance phenotype”.
